From ChEMBL document CHEMBL1201862, “PubChem BioAssay data set” (2004) come the findings set out here.

Some test systems named below: SR; NCI-H522; SF-295; SNB-75; UO-31; DU-145; OVCAR-5; HCT-116; MDA-MB-435; RXF 393; SN12C; OVCAR-3; SK-MEL-2; Hs-578T; Malme-3M; EKVX; U-251; HCC 2998; CAKI-1; NCI-H226.
Common to all, as to assay: NCI tumour cell line growth inhibition, 48 h

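Following 48 hours of exposure in 96-well plates, responses at five concentrations were used to interpolate endpoints linearly. At the GI50, growth is halved.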 The source made the active and inactive calls. Cut-off read from the data, not from the text of the source: active = GI50 up to about 1.1 µM and inactive = higher.

Consider `CC(=O)N(CC(=O)C(=O)NNc1ccoc1)c1ccc(Cl)cc1`, for which the GI50 in the experiment with SR was 79.4 µM (inactive); in the experiment on NCI-H522 it was > 100 µM (inactive); in the experiment on SF-295, > 100 µM (inactive); in the experiment on SNB-75 it was > 100 µM (inactive); in the experiment on UO-31, 77.1 µM (inactive); in the experiment on DU-145, 87.3 µM (inactive). Also, the GI50 with OVCAR-5, in the experiment with HCT-116, in the experiment with MDA-MB-435, in the experiment with RXF 393, in the experiment with SN12C and with OVCAR-3 was > 100 µM (inactive) each time. Also, the GI50 with SK-MEL-2, with Hs-578T, with Malme-3M, with EKVX, with U-251 and in the experiment with HCC 2998 was > 100 µM (inactive) each time. Further, the GI50 in the experiment on CAKI-1 and in the experiment on NCI-H226 was > 100 µM (inactive) throughout.
In the case of `CN(CCNC(=O)c1c[nH]c2c1ccc1ccccc12)CCNC(=O)c1c[nH]c2c1ccc1ccccc12`, the GI50 was 2.08 µM (inactive) in the experiment on SR; 1.89 µM (inactive) in the experiment with NCI-H522; 2.22 µM (inactive) in the experiment on SF-295; 1.52 µM (inactive) in the experiment on SNB-75; 1.38 µM (inactive) with UO-31; 1.99 µM (inactive) with DU-145. Moreover, the GI50 was 4.74 µM (inactive) in the experiment with OVCAR-5; 1.76 µM (inactive) with HCT-116; 1.84 µM (inactive) in the experiment with MDA-MB-435; 1.14 µM (inactive) in the experiment with RXF 393; 3.39 µM (inactive) in the experiment on SN12C; 4.29 µM (inactive) in the experiment on OVCAR-3. For the same compound, the GI50 with SK-MEL-2 was 1.99 µM (inactive); in the experiment with Hs-578T, 2.94 µM (inactive); with Malme-3M it was 8.55 µM (inactive); with EKVX it was 3.62 µM (inactive); in the experiment with U-251 it was 2 µM (inactive); in the experiment on HCC 2998, 1.41 µM (inactive). Besides, the GI50 with CAKI-1 was 2.56 µM (inactive); in the experiment with NCI-H226, 18.1 µM (inactive).
Turning to `O=C1CC(NCCCNC2CC(=O)c3c(Br)sc(Br)c32)c2c(Br)sc(Br)c21` (centres undefined), the GI50 is 0.798 µM (active) with SR; 1.25 µM (inactive) with NCI-H522; 3.78 µM (inactive) in the experiment on SF-295; 2.48 µM (inactive) with SNB-75; 1.42 µM (inactive) in the experiment with UO-31; 1.66 µM (inactive) in the experiment on DU-145. Moreover, the GI50 in the experiment on OVCAR-5 was 2.21 µM (inactive); in the experiment on HCT-116, 1.36 µM (inactive); with MDA-MB-435, 1.39 µM (inactive); in the experiment with RXF 393 it was 1.69 µM (inactive); in the experiment on SN12C, 1.99 µM (inactive); with OVCAR-3, 1.82 µM (inactive). The GI50 was 1.87 µM (inactive) in the experiment on SK-MEL-2; 4.58 µM (inactive) in the experiment with Hs-578T; 1.98 µM (inactive) in the experiment on Malme-3M; 2.22 µM (inactive) with EKVX; 1.82 µM (inactive) in the experiment on U-251; 1.99 µM (inactive) with HCC 2998. Also, the GI50 was 2.03 µM (inactive) in the experiment on CAKI-1 and 3.78 µM (inactive) in the experiment with NCI-H226.
For `CC(=O)Nc1ccc(-c2nc3cc(Cl)ccc3o2)cc1`, the GI50 was > 50 µM (inactive) in the experiment on SR; > 50 µM (inactive) in the experiment with NCI-H522; > 50 µM (inactive) in the experiment on SF-295; 32.5 µM (inactive) with SNB-75; > 50 µM (inactive) with UO-31; > 50 µM (inactive) with DU-145. Moreover, the GI50 with OVCAR-5, in the experiment on HCT-116, in the experiment with MDA-MB-435, with RXF 393, in the experiment on SN12C and with OVCAR-3 was > 50 µM (inactive) in each case. The GI50 is > 50 µM (inactive) with SK-MEL-2; > 50 µM (inactive) in the experiment with Hs-578T; > 50 µM (inactive) with Malme-3M; > 50 µM (inactive) in the experiment on EKVX; 45.7 µM (inactive) in the experiment on U-251; 40.1 µM (inactive) in the experiment with HCC 2998. The GI50 in the experiment on CAKI-1 was > 50 µM (inactive); in the experiment on NCI-H226 it was 24.5 µM (inactive).
Regarding `O=C1c2cc3c(cc2NC(c2ccccc2F)C1O)OCO3` (centres undefined), the GI50 in the experiment on SR was 3.74 µM (inactive); in the experiment with NCI-H522 it was 10.5 µM (inactive); in the experiment on SF-295 it was 12.1 µM (inactive); in the experiment with SNB-75 it was 16.3 µM (inactive); in the experiment with UO-31, 27.7 µM (inactive); in the experiment with DU-145 it was 35 µM (inactive). Besides, the GI50 in the experiment with OVCAR-5 is 22.1 µM (inactive); with HCT-116, 3.97 µM (inactive); with MDA-MB-435, 3.08 µM (inactive); with RXF 393, 22.4 µM (inactive); in the experiment with SN12C, 22.2 µM (inactive); with OVCAR-3, 20.5 µM (inactive). The GI50 in the experiment with SK-MEL-2 is 24.3 µM (inactive); with Hs-578T it was 18.1 µM (inactive); in the experiment on Malme-3M it was 9.86 µM (inactive); with EKVX, 16.9 µM (inactive); in the experiment with U-251, 14.9 µM (inactive); in the experiment on HCC 2998, 15.5 µM (inactive). For the same compound, the GI50 is 25.6 µM (inactive) with CAKI-1 and 20.9 µM (inactive) in the experiment on NCI-H226.
On to `COc1cc2c3c(cc(Cl)nc3c1OC)C(O)(CC(=O)c1ccccc1)C(=O)N2` (centres undefined), for which the GI50 in the experiment on SR is 4.65 µM (inactive); in the experiment on NCI-H522, 2.89 µM (inactive); in the experiment on SF-295 it was 17.9 µM (inactive); in the experiment with SNB-75 it was 14.8 µM (inactive); in the experiment with UO-31 it was 13.3 µM (inactive); in the experiment with DU-145, 16.2 µM (inactive). Moreover, the GI50 in the experiment with OVCAR-5 was 19.1 µM (inactive); in the experiment with HCT-116, 4.69 µM (inactive); with MDA-MB-435, 1.93 µM (inactive); in the experiment with RXF 393, 13.4 µM (inactive); with SN12C it was 6.79 µM (inactive); in the experiment on OVCAR-3, 15.6 µM (inactive). The GI50 in the experiment with SK-MEL-2 was 15.1 µM (inactive); with Hs-578T, 21.7 µM (inactive); in the experiment with Malme-3M, 2.38 µM (inactive); in the experiment on EKVX it was 5.14 µM (inactive); in the experiment on U-251, 17.1 µM (inactive); in the experiment on HCC 2998, 18.5 µM (inactive). The figures for the GI50 in the experiment with CAKI-1 and in the experiment on NCI-H226 were 17.5 µM (inactive) and 21.5 µM (inactive), respectively.
As to `C=C(C)[C@H]1C[C@@H]2O[C@@](O)(/C(C)=C\C(=O)/C=C(/C)C[C@H]3OC(=O)[C@@]24O[C@H]34)[C@@H]1O`, the GI50 with SR was 47.4 µM (inactive); in the experiment on NCI-H522, > 100 µM (inactive); in the experiment on SF-295, > 100 µM (inactive); with SNB-75 it was > 100 µM (inactive); in the experiment with DU-145, > 100 µM (inactive); in the experiment on OVCAR-5, > 100 µM (inactive). The GI50 was > 100 µM (inactive) in the experiment with HCT-116; > 100 µM (inactive) in the experiment with MDA-MB-435; 25.7 µM (inactive) in the experiment with RXF 393; > 100 µM (inactive) in the experiment with SN12C; > 100 µM (inactive) in the experiment with OVCAR-3; > 100 µM (inactive) in the experiment on SK-MEL-2. Also, the GI50 with Hs-578T, in the experiment on Malme-3M, in the experiment on EKVX, with U-251, in the experiment with HCC 2998 and in the experiment with CAKI-1 was > 100 µM (inactive) in each case. Besides, the GI50 in the experiment on NCI-H226 was > 100 µM (inactive).
